The experiment has as its target urease enzyme (Canavalia ensiformis, UniProt P07374). The note with it: for %age Activity at 25 μg (urease inhibition): 25 µg/mL; for %age Activity at 50 μg (urease inhibition): 50 µg/mL.

Data on ten compounds can be found in paper PMC6270011, “Design and Synthesis of Arylthiophene-2-Carbaldehydes via Suzuki-Miyaura Reactions and Their Biological Evaluation” (Molecules, 2013).

Sequence of urease enzyme (P07374 whole entry, looked up): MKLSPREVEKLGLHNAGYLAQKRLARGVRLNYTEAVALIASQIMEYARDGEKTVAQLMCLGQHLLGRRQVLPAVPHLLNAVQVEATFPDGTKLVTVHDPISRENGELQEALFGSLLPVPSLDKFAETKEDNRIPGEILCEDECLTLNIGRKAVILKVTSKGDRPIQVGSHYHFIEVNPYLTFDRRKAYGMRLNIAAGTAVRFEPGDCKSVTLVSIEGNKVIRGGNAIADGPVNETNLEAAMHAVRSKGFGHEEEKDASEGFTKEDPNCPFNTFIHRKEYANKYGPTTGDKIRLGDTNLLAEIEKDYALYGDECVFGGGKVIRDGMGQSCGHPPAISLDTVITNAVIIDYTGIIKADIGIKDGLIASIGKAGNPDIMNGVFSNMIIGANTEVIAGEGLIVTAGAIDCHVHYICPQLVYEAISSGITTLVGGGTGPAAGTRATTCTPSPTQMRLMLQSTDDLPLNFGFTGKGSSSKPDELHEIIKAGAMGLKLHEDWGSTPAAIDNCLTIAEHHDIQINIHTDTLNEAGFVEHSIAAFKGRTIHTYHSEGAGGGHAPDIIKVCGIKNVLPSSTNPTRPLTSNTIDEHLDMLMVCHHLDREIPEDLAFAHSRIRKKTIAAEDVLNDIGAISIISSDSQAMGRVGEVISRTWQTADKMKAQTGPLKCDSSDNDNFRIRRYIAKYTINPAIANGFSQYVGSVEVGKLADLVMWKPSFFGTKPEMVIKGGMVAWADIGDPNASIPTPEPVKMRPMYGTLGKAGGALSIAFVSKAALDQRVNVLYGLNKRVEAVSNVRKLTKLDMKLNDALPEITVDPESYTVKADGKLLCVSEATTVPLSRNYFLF

In the case of `O=Cc1cc(-c2cc(C(F)(F)F)cc(C(F)(F)F)c2)cs1` [2b, 4-(3,5-Bis(trifloromethyl)phenyl)thiophene-2-carbaldehyde], the “%age Activity at 25 μg (urease inhibition)” value worked out at 35 ± 0.014% and the “%age Activity at 50 μg (urease inhibition)” value was found to be 87.0 ± 0.084%.

As for `O=Cc1cc(-c2ccccc2)cs1` [2a, 4-Phenylthiophene-2-carbaldehyde], the “%age Activity at 25 μg (urease inhibition)” value is on record as 45 ± 0.0162% and the “%age Activity at 50 μg (urease inhibition)” value is recorded as 86.9 ± 0.012%.

Take `Cc1ccc(-c2csc(C=O)c2)cc1` [2e, 4-p-Tolylthiophene-2-carbaldehyde]: the “%age Activity at 25 μg (urease inhibition)” value was determined as 44.5 ± 0.057% and the “%age Activity at 50 μg (urease inhibition)” value stood at 76.5 ± 0.05%.

In the case of `O=Cc1cc(-c2ccc(Cl)s2)cs1` [2c], the “%age Activity at 25 μg (urease inhibition)” value was 44 ± 0.0042% and the “%age Activity at 50 μg (urease inhibition)” value is given as 87.8 ± 0.006%.

For the compound `O=Cc1cc(-c2ccc(F)c(Cl)c2)cs1` [2i, 4-(3-Chloro-4-fluorophenyl)thiophene-2-carbaldehyde], the “%age Activity at 25 μg (urease inhibition)” value is on record as 46.2 ± 0.0042% and the “%age Activity at 50 μg (urease inhibition)” value came out at 90.6 ± 0.05%.

Regarding `N#Cc1cc(-c2csc(C=O)c2)cc(C(F)(F)F)c1` [2d, 3-(5-Formylthiophene-3-yl)-5-(trifloromethyl)benzonitrile], the “%age Activity at 25 μg (urease inhibition)” value is reported as 37 ± 0.0042% and the “%age Activity at 50 μg (urease inhibition)” value was determined as 88.7 ± 0.005%.

Regarding `COc1ccc(-c2csc(C=O)c2)cc1` [2f, 4-(4-Methoxyphenyl)thiophene-2-carbaldehyde], the “%age Activity at 25 μg (urease inhibition)” value turned out to be 42.3 ± 0.0007% and the “%age Activity at 50 μg (urease inhibition)” value is on record as 80.2 ± 0.0017%.

With `O=Cc1cc(-c2ccc(Cl)c(Cl)c2)cs1` [2h, 4-(3,4-Dichlorophenyl)thiophene-2-carbaldehyde], the “%age Activity at 25 μg (urease inhibition)” value stood at 44 ± 0.084% and the “%age Activity at 50 μg (urease inhibition)” value is on record as 86.4 ± 0.44%.

For `Cc1cc(C)cc(-c2csc(C=O)c2)c1` [2g, 4-(3,5-Dimethylphenyl)thiophene-2-carbaldehyde], the “%age Activity at 25 μg (urease inhibition)” value is 42.5 ± 0.0070% and the “%age Activity at 50 μg (urease inhibition)” value is 87.2 ± 0.5%.

For `Cc1ccc(-c2csc(C=O)c2)s1` [2j, 5-Methyl-2,3-bisthiophene-5-carbaldehyde], the “%age Activity at 25 μg (urease inhibition)” value came out at 2 ± 0.219% and the “%age Activity at 50 μg (urease inhibition)” value is recorded as 9.7 ± 0.2%.
